This is an account of results in patent US8138175B2, “Heterocyclyl compounds” (Hoffmann-La Roche Inc., priority 2008, dated 2012).

This experiment concerns the target T1, human chemokine receptor 2 isoform B (Homo sapiens, UniProt P41597).
T1 construct: host or cells: CHOK1-CCR2B-A5 (CHO-K1) cells
T1 sequence (P41597 1-360 isoform P41597-2): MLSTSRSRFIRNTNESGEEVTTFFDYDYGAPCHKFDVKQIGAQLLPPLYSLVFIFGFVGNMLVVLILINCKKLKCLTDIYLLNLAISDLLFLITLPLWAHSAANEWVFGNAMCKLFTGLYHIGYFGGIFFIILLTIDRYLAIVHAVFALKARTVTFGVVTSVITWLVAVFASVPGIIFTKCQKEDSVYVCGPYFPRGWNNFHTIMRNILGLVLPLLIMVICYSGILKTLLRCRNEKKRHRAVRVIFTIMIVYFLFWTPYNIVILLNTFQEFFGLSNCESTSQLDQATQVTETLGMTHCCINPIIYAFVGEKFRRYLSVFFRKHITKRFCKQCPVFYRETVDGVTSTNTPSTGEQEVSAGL
Nature of the experiment: Calcium mobilization assay. Type of experiment: cell-based. The following applies: Ca mobilization assay for CCR2; CHOK1-CCR2B-A5 cells; antagonist activity against 20 nM MCP-1; FLIPR, Fluo-4. On the procedure:
Calcium Mobilization Assay
CHOK1-CCR2B-A5 cells (from Euroscreen) stably overexpressing the human chemokine receptor 2 isoform B were cultured in Nutrient Hams F12 medium supplemented with 5% FBS, 100 U/ml penicillin, 100 μg/ml streptomycin, 400 μg/ml G418 and 5 μg/ml puromycin.
For the assay cells were grown overnight in 384-well black clear flat bottom polystyrene plates (Costar) at 37° C. at 5% CO2. After washing with DMEM, 20 mM Hepes, 2.5 mM probenecid, 0.1% BSA (DMEM assay buffer) cells were loaded with 4 μM Fluo-4 in the same DMEM assay buffer for 2 hours at 30° C. Excess dye was removed and cells were washed with DMEM assay buffer. 384-well compound plates were prepared with DMEM assay buffer/0.5% dimethyl sulfoxide with or without various concentrations of test compounds. Usually compounds were tested for agonist and antagonist activity.
Test compounds were added to the assay plate and agonist activity was monitored as fluorescence for 80 seconds with a FLIPR (488 nm excitation; 510-570 nm emission; Molecular Devices). After 20-30 min. of incubation at 30° C., 20 nM MCP-1 (R&D; Roche) was added and fluorescence was monitored again for 80 seconds. Increases in intracellular calcium are reported as maximum fluorescence after agonist exposure minus basal fluorescence before exposure. Antagonist activity is indicated as inhibitor concentration required for 50% inhibition of specific calcium increases.

As a reminder, the IC50 is the concentration that gives 50% inhibition. Regarding `COC(=O)[C@H](CCN1CCC2(CC2)[C@H](O)C1)N1CC(C)N(c2ccc(Cl)c(Cl)c2)CCC1=O` (mixture of isomers) [Example 67, (S)-2-[(R,S)-4-(3,4-dichloro-phenyl)-3-methyl-7-oxo-[1,4]diazepan-1-yl]-4-((S)-4-hydroxy-6-aza-spiro[2.5]oct-6-yl)-butyric acid methyl ester], the IC50 was found to be 52 nM.

With `CN(C)C(=O)C(CCCN1CCC(C)(O)CC1)N1CCN(c2cccc(C(F)(F)F)c2)CCC1=O` (racemic) [Example 25, (rac)-5-(4-Hydroxy-4-methyl-piperidin-1-yl)-2-[7-oxo-4-(3-trifluoromethyl-phenyl)-[1,4]diazepan-1-yl]-pentanoic acid dimethylamide], the IC50 is 200 nM.

On to `COC(=O)C(CCCN1CCC(C)(O)CC1)N1CCN(c2cccc(C(F)(F)F)c2)CCC1=O` (racemic) [Example 29, (rac)-5-(4-Hydroxy-4-methyl-piperidin-1-yl)-2-[7-oxo-4-(3-trifluoromethyl-phenyl)-[1,4]diazepan-1-yl]-pentanoic acid methyl ester], for which the IC50 is 640 nM.

On to `CC1CN([C@@H](CO)CCN2CCC3(CC3)[C@H](O)C2)C(=O)CCN1c1ccc(Cl)c(Cl)c1` (mixture of isomers) [Example 68, (R,S)-1-(3,4-Dichloro-phenyl)-4-[(S)-3-((S)-4-hydroxy-6-aza-spiro[2.5]oct-6-yl)-1-hydroxymethyl-propyl]-2-methyl-[1,4]diazepan-5-one], for which the 50% inhibitory concentration (IC50) was 46 nM.

As to `CC1CN(C(CO)CCN2CCC3(CC3)[C@H](O)C2)C(=O)CCN1c1ccc(Cl)c(Cl)c1` (stereo in doubt) [Example 69, (R)-1-(3,4-Dichloro-phenyl)-4-[(S)-3-((S)-4-hydroxy-6-aza-spiro[2.5]oct-6-yl)-1-hydroxymethyl-propyl]-2-methyl-[1,4]diazepan-5-one], the IC50 was 11 nM.

For the molecule `COC(=O)[C@H](CCN1CCC2(CC2)[C@H](O)C1)N1CCN(c2ccc(Cl)c(Cl)c2)CCC1=O` [Example 1, (S)-2-[4-(3,4-Dichloro-phenyl)-7-oxo-[1,4]diazepan-1-yl]-4-((S)-4-hydroxy-6-aza-spiro[2.5]oct-6-yl)-butyric acid methyl ester], the half-maximal inhibitory concentration (IC50) was found to be 40 nM.

With `O=C1CCN(c2ccc(Cl)c(Cl)c2)CCN1[C@H](CO)CCN1CCC2(CC2)[C@H](O)C1` [Example 2, 1-(3,4-Dichloro-phenyl)-4-[(S)-3-((S)-4-hydroxy-6-aza-spiro[2.5]oct-6-yl)-1-hydroxymethyl-propyl]-[1,4]diazepan-5-one], the IC50 was 10 nM.

For the molecule `COC(=O)[C@H](CCN1CCC2(CC2)[C@H](O)C1)N1CCN(c2cccc(Cl)c2)CCC1=O` [Example 3, (S)-2-[4-(3-Chloro-phenyl)-7-oxo-[1,4]diazepan-1-yl]-4-((S)-4-hydroxy-6-aza-spiro[2.5]oct-6-yl)-butyric acid methyl ester], the IC50 amounted to 130 nM.

As to `O=C1CCN(c2cccc(Cl)c2)CCN1[C@H](CO)CCN1CCC2(CC2)[C@H](O)C1` [Example 4, 1-(3-Chloro-phenyl)-4-[(S)-3-((S)-4-hydroxy-6-aza-spiro[2.5]oct-6-yl)-1-hydroxymethyl-propyl]-[1,4]diazepan-5-one], the IC50 was found to be 60 nM.

With `COC(=O)[C@H](CCN1CCC2(CC2)[C@H](O)C1)N1CCN(c2cccc(C(F)(F)F)c2)CCC1=O` [Example 5, (S)-4-((S)-4-Hydroxy-6-aza-spiro[2.5]oct-6-yl)-2-[7-oxo-4-(3-trifluoromethyl-phenyl)-[1,4]diazepan-1-yl]-butyric acid methyl ester], the IC50 came out at 20 nM.

Take `O=C1CCN(c2cccc(C(F)(F)F)c2)CCN1[C@H](CO)CCN1CCC2(CC2)[C@H](O)C1` [Example 6, 4-[(S)-3-((S)-4-Hydroxy-6-aza-spiro[2.5]oct-6-yl)-1-hydroxymethyl-propyl]-1-(3-trifluoromethyl-phenyl)-[1,4]diazepan-5-one]: the IC50 came to 10 nM.

Turning to `COC(=O)[C@H](CCN1C[C@@H](C)C[C@H](O)C1)N1CCN(c2cccc(C(F)(F)F)c2)CCC1=O` [Example 7, (S)-4-((3S,5S)-3-Hydroxy-5-methyl-piperidin-1-yl)-2-[7-oxo-4-(3-trifluoromethyl-phenyl)-[1,4]diazepan-1-yl]-butyric acid methyl ester], the IC50 came to 90 nM.

In the case of `COC(=O)[C@@H](CCN1CCC2(CC2)[C@H](O)C1)N1CCN(c2cccc(C(F)(F)F)c2)CCC1=O` [Example 8, (R)-4-((S)-4-Hydroxy-6-aza-spiro[2.5]oct-6-yl)-2-[7-oxo-4-(3-trifluoromethyl-phenyl)-[1,4]diazepan-1-yl]-butyric acid methyl ester], the half-inhibitory concentration (IC50) was found to be 600 nM.

With `O=C1CCN(c2cccc(C(F)(F)F)c2)CCN1[C@@H](CO)CCN1CCC2(CC2)[C@H](O)C1` [Example 9, 4-[(R)-3-((S)-4-Hydroxy-6-aza-spiro[2.5]oct-6-yl)-1-hydroxymethyl-propyl]-1-(3-trifluoromethyl-phenyl)-[1,4]diazepan-5-one], the IC50 came out at 180 nM.

For the molecule `COC(=O)[C@H](CCN1CCC2(CC2)[C@H](O)C1)N1CCN(c2ccc(OC(F)(F)F)cc2)CCC1=O` [Example 11, (S)-4-((S)-4-Hydroxy-6-aza-spiro[2.5]oct-6-yl)-2-[7-oxo-4-(4-trifluoromethoxy-phenyl)-[1,4]diazepan-1-yl]-butyric acid methyl ester], the IC50 is 400 nM.

Regarding `O=C1CCN(c2ccc(OC(F)(F)F)cc2)CCN1[C@H](CO)CCN1CCC2(CC2)[C@H](O)C1` [Example 12, 4-[(S)-3-((S)-4-Hydroxy-6-aza-spiro[2.5]oct-6-yl)-1-hydroxymethyl-propyl]-1-(4-trifluoromethoxy-phenyl)-[1,4]diazepan-5-one], the 50% inhibitory concentration (IC50) stood at 120 nM.

Regarding `COC(=O)[C@H](CCN1CCC2(CC2)[C@H](O)C1)N1CCN(c2cccc(OC(F)(F)F)c2)CCC1=O` [Example 13, (S)-4-((S)-4-Hydroxy-6-aza-spiro[2.5]oct-6-yl)-2-[7-oxo-4-(3-trifluoromethoxy-phenyl)-[1,4]diazepan-1-yl]-butyric acid methyl ester], the IC50 worked out at 30 nM.

Take `O=C1CCN(c2cccc(OC(F)(F)F)c2)CCN1[C@H](CO)CCN1CCC2(CC2)[C@H](O)C1` [Example 14, 4-[(S)-3-((S)-4-Hydroxy-6-aza-spiro[2.5]oct-6-yl)-1-hydroxymethyl-propyl]-1-(3-trifluoromethoxy-phenyl)-[1,4]diazepan-5-one]: the IC50 came to 10 nM.

Turning to `COC(=O)C(CCN1CCC2(CC2)[C@H](O)C1)N1CCN(c2cccc(C(F)(F)F)c2)CCC1=O` (stereo partly drawn) [Example 15, (R,S)-4-((S)-4-Hydroxy-6-aza-spiro[2.5]oct-6-yl)-2-[7-oxo-4-(3-trifluoromethyl-phenyl)-[1,4]diazepan-1-yl]-butyric acid methyl ester], the IC50 amounted to 60 nM.

As for `O=C1CCN(c2cccc(C(F)(F)F)c2)CCN1C(CO)CCN1CCC2(CC2)[C@H](O)C1` (stereo partly drawn) [Example 16, 4-[(R,S)-3-((S)-4-Hydroxy-6-aza-spiro[2.5]oct-6-yl)-1-hydroxymethyl-propyl]-1-(3-trifluoromethyl-phenyl)-[1,4]diazepan-5-one], the half-inhibitory concentration (IC50) amounted to 10 nM.

Regarding `CN(C)C(=O)C(CCN1CCC2(CC2)[C@H](O)C1)N1CCN(c2cccc(C(F)(F)F)c2)CCC1=O` (stereo partly drawn) [Example 17, (R,S)-4-((S)-4-Hydroxy-6-aza-spiro[2.5]oct-6-yl)-N,N-dimethyl-2-[7-oxo-4-(3-trifluoromethyl-phenyl)-[1,4]diazepan-1-yl]-butyramide], the IC50 is 140 nM.
